Patent US20070281036A1, “System and method of delivering a desired material to a cell” (University of Vermont and State Agricultural College, priority 2005, published 2007)

Key:
ERK1/2 = experiment: Western blot for phosphorylated ERK1/2; assay type: cell-based, human; settings: 80 nM DOX; 4, 8, 24 and 48 h
Method: (§1) Western Blot Analyses for Phosphorylated ERK's1/2 and AKT To determine whether DOX at low concentrations delivered by APMS modified signaling pathways associated with cell survival, nearly confluent MM cells were washed 3× with cold PBS, scraped from culture plates, and collected by centrifugation at 14,000 rpm for 1 min. The pellet was resuspended in lysis buffer [20 mM Tris (pH 7.4), 1% Triton X-100, 10% glycerol, 137 mM NaCl, 2 mM EDTA, 25 mM β-glycerophosphate, 1 mM Na3VO4, 2 mM pyrophosphate, 1 mM PMSF, 10 μg/ml leupeptin, 1 mM DTT, 10 mM NaF, 1% aprotinin], incubated at 4° C. for 15 min, and centrifuged at 14,000 rpm for 20 min. Protein concentrations were determined using a Bio-Rad RC-DC Assay (Bio-Rad Laboratories, Hercules, Calif.). […] of protein in sample buffer [62.5 mM Tris-HCl (pH 6.8), 2% sodium dodecyl sulfate (SDS), 10% glycerol, 50 mM dithiothreitol, 0.1% w/v bromophenol blue] was resolved by electrophoresis in 10% SDS-polyacrylamide gels, and transferred to nitrocellulose using a Mini Trans-Blot Cell apparatus (Bio-Rad Laboratories). […] Blots were washed 3× in TBS/0.1% Tween-20, and protein bands were visualized with the ECL Western Blotting Detection Reagents (Amersham Biosciences, GE Healthecare UK Limited, Buckinghamshire, UK) and quantitated using a Bio-Rad phosphorimager.

NF-κB = NF-κB electrophoretic mobility shift assay; assay type: cell-based, human
Method: NF-κB Electrophoretic Mobility Shift Assay. Electrophoretic gel mobility shift assays were used to assess the binding of NF-κB to DNA. Nuclear extracts of MM cells treated with 80 nM DOX, 100 μM DOX, APMS-TEG, APMS-TEG preloaded with 80 nM DOX (APMS-DOX80) for 4 h, were prepared as described previously (14). Samples were treated with or without TNF-α, 1 h prior to harvesting nuclear protein. The amount of protein in each sample was determined with the Bio-Rad protein assay (Bio-Rad). A ^32P-end-labeled double stranded oligodeoxynucleotide representing the specific element that contains an NF-κB consensus sequence (E3292, Promega, Madison, Wis.) was incubated with 3 μg of extract as described previously (15). The components of the NF-κB complex were identified by antibodies specific for p50 and p65 proteins (Santa Cruz Biotechnology, Inc., Santa Cruz, Calif.). Autoradiograms were developed and quantitated with a Bio-Rad phosphorimager.

AKT = experiment: Western blot for phosphorylated AKT; assay type: cell-based, human; settings: 80 nM DOX; each time point
Method: as §1

MM cells [1] = experiment: MTS cell viability assay; assay type: cell-based, human; settings: 80 nM DOX; varying amounts of time
Method: Cell viability was measured in treated cells by using the calorimetric MTS Assay, CellTiter 96 AQueous One Solution Cell Proliferation Assay (Promega) as per the manufacturer's recommendations. Briefly, 5×10^3 cells were plated in a 96-well microtiter plate and allowed to recover overnight. Medium was aspirated, and cells were maintained in a low serum-containing medium for 24 h prior to treatment for varying amounts of time with APMS and/or DOX. MTS reagent was added, plates were incubated at 37° C. for 2-3 h and the absorbance of the wells was read at 492 nm as a measure of cell viability.

[2] = test system: phosphorylated histone protein H2AX (γH2AX); experiment: Immunocytochemical analysis of γH2AX; assay type: cell-based, human; settings: 80 nM DOX; 8 and 24 h; compared to control
Method: Mechanisms of Cytotoxicity. To explore mechanisms of toxicity of DOX at low concentrations delivered by APMS, levels of phosphorylated histone protein H2AX (γH2AX), a marker of DNA double strand breaks, and Apoptosis Inducing Factor (AIF), a marker of mitochondrial mediated apoptosis, were analyzed.
Immunocytochemical Analysis ofphosphorylated histone protein H2AX (γH2AX). Monolayers of cells were grown on glass coverslips and treated as described above. Cells were then washed in PBS, then fixed in 4% paraformaldehyde and permeabilized in 0.1% Triton X-100. Cells were blocked for 1 h at room temperature in PBS containing 3% bovine serum albumin (BSA), then incubated in a 1:500 dilution of mouse monoclonal anti-phospho-histone H2AX antibody (#05-636, Upstate Cell Signaling, Charlottesville, Va.) in 3% BSA overnight at 4° C. Cells were then washed in PBS and incubated in a 1:300 dilution of goat anti-mouse IgO conjugated to Alexa-647 fluorescent tag (Molecular Probes, Invitrogen) in PBS for 45 min at room temperature in the dark. […] Coverslips were then washed and mounted on glass slides using Aqua Poly/Mount (#18606, Polysciences, Inc., Warrington, Pa.) and analyzed using a Zeiss LSM 510 META confocal scanning laser microscope (Carl Zeiss Microimaging).

[3] = test system: human mesothelioma (MM) cells; experiment: LDH release assay of cell lysis, MM cells; settings: doses of DOX ranging from 800 nM to 2000 nM; 48 h
Method: Cells were plated and grown to 70-80% confluence at 37° C. in complete medium. Medium was aspirated and replaced with maintenance medium containing 0.5% FBS, and incubated for 24 hrs.
Briefly, cells were treated with APMS and/or DOX alone and in combination for varying amounts of time, and 50 μl of the supernatant was removed (in triplicate) and placed into wells of a 96-well plate. Fifty μl of substrate buffer was added to each well, and the plate was incubated for 30 min at room temperature in the dark. Fifty μl of stop solution was then added, and plates were read at 490 nm.

human mesothelioma cells = assay type: cell-based
Method: We have also modified existing HPLC methods (Andersen et al, 1993, 1994; De Bruijn et al, 1999) to compare the amounts of DOX transferred to cellular interiors by DOX-loaded APMS and DOX alone. More DOX is transferred to cells when it is preloaded into APMS than when it is administered alone. Briefly, measurement of cellular DOX concentrations was accomplished by lysis and enzymatic digestion of the cellular contents, along with centrifugation. […] Similar methodology was used to quantify the amount of extracellular DOX, and since the total amount of DOX within the APMS particles prior to its addition to the cell culture was known, the amount of DOX remaining within the particles could be determined (FIG. 7). Intracellular and extracellular amounts of DOX were measured by fluorescence HPLC after digestion and release of DOX from cellular material (FIG. 7A). […]
Preloading APMS with Doxorubicin (DOX). […] The concentration of DOX within the APMS were calculated theoretically and verified via HPLC following hydration overnight in water or methanol at room temperature, as previously described (13). Concentrations of DOX in cells were measured. […] Similar methodology was used to quantify the amount of extracellular DOX, and since the total amount of DOX within the APMS particles prior to its addition to the cell culture was known, the amount of DOX remaining within the particles could be determined.

MM cells [4] = experiment: Flow cytometry of mechanisms of APMS uptake; assay type: cell-based, human; settings: 30 min pretreatment; chlorpromazine 5 μg/ml, cytochalasin D 1 μM, filipin 6.25 μg/ml; vs control at 37° C.
Method: Cells were exposed for 30 min to chemical inhibitors of specific uptake mechanisms: chlorpromazine ([…]), cytochalasin D (1 μM), or filipin (6.25 μg/ml), i.e. at effective concentrations as reported in the literature (25-29), or incubated at 4° C. for 30 min prior to addition of APMS for various amounts of time. Hoechst 33342 nucleic acid dye (16.2 μM) (Molecular Probes, Invitrogen) was added 15 min prior to harvesting cells. Cells were washed once in PBS and removed from dishes using Accutase cell detachment solution (Innovative Cell Technologies, Inc. San Diego, Calif.), pelleted by centrifugation, resuspended in calcium and magnesium-free phosphate buffered saline (PBS), and kept on ice until analyzed. Samples were analyzed using a BD LSRII flow cytometer (BD Biosciences, San Jose, Calif.) equipped with a Sapphire 488 (Coherent, Santa Clara, Calif.) laser which emits at 488 nm to excite the Alexa 488 dye, and a solid state Xcite (Lightwave) which emits at 355 nm to excite the Hoechst 333342 nucleic acid dye (Molecular Probes, Invitrogen). Data analysis was performed at the time of acquisition using Flow Jo (Tree Star, Inc., Ashland, Oreg.). This software package is an experiment-based flow cytometry data analysis package designed for multi-color research.
To verify that the gating used in determining cell populations was accurate, FACS analysis was performed on different populations. Populations of cells/APMS were selected based on their locations on histograms, and were sorted, collected and mounted on glass slides using cytocentriftigation. […] The fluorescent signals from Alexa 488 were detected using 530/30 BP and 505 LP filters. Hoechst staining was detected using 440/40 BP filter. Identification and quantification of populations on cytospins were performed manually with phase contrast and fluorescence microscopy using an Olympus BX50 microscope (Olympus America, Lake Success, N.Y.).

Which “phospho-ERK1/2: total ERK1/2 ratio” value (ERK1/2) does the source give for `COc1cccc2c1C(=O)c1c(O)c3c(c(O)c1C2=O)C[C@@](O)(C(=O)CO)C[C@@H]3O[C@H]1C[C@H](N)[C@H](O)[C@H](C)O1` [DOX, doxorubicin] here?
The value was “do not significantly affect”.

What about the “NF-κB-DNA binding after adding TNF-α 1 hr prior to harvesting” value (NF-κB; 80 nM DOX) of the same molecule?
The value was “further increased the DNA binding”.

And the “NF-κB-DNA binding after adding TNF-α for 1 h prior to harvesting” value (NF-κB; 100 μM DOX)?
The value was “could not be reversed”.

What about the NF-κB-DNA binding activity (NF-κB; 100 μM DOX (a lethal concentration), 4 h) of the same molecule?
Its NF-κB-DNA binding activity is “ablated”.

What about the NF-κB-DNA binding activity (NF-κB; 4 h exposure, 80 nM DOX, compared to controls) of the same molecule?
The NF-κB-DNA binding activity was “increased”.

What about the “phospho-AKT: total AKT ratios” value (AKT) of the same molecule?
The value was “did not significantly affect”.

What about the “cell viability (MTS)” value (MM cells [1]) of the same molecule?
The value was “no significant difference”.

What about the “levels of γH2AX” value [2] of the same molecule?
The value was “increased”.

And the “cell death compared to total LDH released from lysed cells” value [3]?
The value was 10-13%.

What about the “amount of DOX transferred to the cell relative to DOX preloaded into APMS” value (human mesothelioma cells) of the same molecule?
The value was “Approximately half as much”.

What about the “maximum amount of DOX transferred to the cellular interior, of the initial dose” value (human mesothelioma cells; human) of the same molecule?
The value was “approximately 25%”.

`CN(C)CCCN1c2ccccc2Sc2ccc(Cl)cc21` [chlorpromazine] was tested. Which “effect of inhibitor pretreatment on APMS-TEG particle uptake” value (“effect of inhibitor pretreatment” for short) (MM cells [4]) did it give?
The value was “no inhibition”.

For `C=C1[C@@H](C)[C@H]2[C@H](Cc3ccccc3)NC(=O)[C@]23[C@H](OC(C)=O)/C=C/[C@@](C)(O)C(=O)[C@@H](C)C/C=C/[C@H]3[C@@H]1O` [cytochalasin D], which “effect of inhibitor pretreatment” value (MM cells [4]) is on record?
The value was “decreased numbers of APMS-containing cells”.

How did the “effect of inhibitor pretreatment” value (MM cells [4]) turn out when `CCCCC[C@@H](O)[C@H]1C(=O)O[C@H](C)[C@@H](O)/C=C/C=C/C=C/C=C/C=C(\C)[C@@H](O)C[C@H](O)C[C@H](O)C[C@H](O)C[C@H](O)C[C@H](O)C[C@@H]1O` [filipin] was run?
The value was “no inhibition”.

For TNF-α, which “NF-κB DNA binding” value (NF-κB; 1 hr incubation) is on record?
Its value is “dramatically increased DNA binding”.
